Measured values from ChEMBL document CHEMBL1140122 (J Med Chem, 2008).

Columns and labels:
[1] = tested on: Trypanosoma cruzi; assay: Antitrypanosomal activity against Trypanosoma cruzi Tulahuen C4 in african green monkey Vero cells after 120 hrs; type: functional, organism-based
[2] = tested on: Vero; assay: Cytotoxicity against african green monkey Vero cells by MTT assay; type: cell-based; conditions: Chlorocebus sabaeus
[3] = Selectivity index, IC50 for african green monkey Vero cells to IC50 for Trypanosoma cruzi Tulahuen C4; type: functional
[4] = Cytotoxicity against BALB mouse 3T3 cells after 48 hrs; type: cell-based; conditions: BALB 3T3 cells
[5] = tested on: NCI-H460; assay: Cytotoxicity against human H460 cells after 48 hrs; type: functional; conditions: NCI-H460, 48 h
[6] = tested on: DU-145; assay: Cytotoxicity against human DU145 cells after 48 hrs; type: functional; conditions: DU-145, 48 h
[7] = tested on: MCF7; assay: Cytotoxicity against human MCF7 cells after 48 hrs; type: functional; conditions: MCF7, 48 h
[8] = tested on: M14; assay: Cytotoxicity against human M14 cells after 48 hrs; type: functional; conditions: M14, 48 h
[9] = tested on: HT-29; assay: Cytotoxicity against human HT29 cells after 48 hrs; type: functional; conditions: HT-29, 48 h
[10] = tested on: PC-3; assay: Cytotoxicity against human PC3 cells after 48 hrs; type: functional; conditions: PC-3, 48 h
[11] = tested on: K562; assay: Cytotoxicity against human K562 cells after 48 hrs; type: functional; conditions: K562, 48 h

Row | SMILES | IC50 [1] [µM] | IC50 [2] [µM] | Ratio IC50 [3] | GI50 at 48 h [4] [µM] | GI50 [5] [µM] | GI50 [6] [µM] | GI50 [7] [µM] | GI50 [8] [µM] | GI50 [9] [µM] | GI50 [10] [µM] | GI50 [11] [µM]
1 | C=CCOc1cc(OC)c(C(=O)/C=C/c2ccccc2)c(OCC=C)c1 | 17.1 | 17.1 | 1 |  |  |  |  |  |  |  | 
2 | COc1cc(O)cc(O)c1C(=O)/C=C/c1ccc2c(c1)OCO2 | 9.4 | 25.5 | 2.7 | 5.1 | 15.6 | 12.4 | 20.4 | 22.6 | 20.7 | 18.5 | 16.2
3 | C=CCOc1cc(OC)c(C(=O)/C=C/c2ccc(OC)cc2OC)c(OCC=C)c1 | 13.1 | 92.6 | 7.1 |  |  |  |  |  |  |  | 
4 | COc1cc(O)c(C(=O)/C=C/c2ccc3c(c2)OCO3)c(OC)c1 | > 25 |  |  | 39 | > 190 | > 190 | 140 | > 190 | > 190 | 118 | 18.9
5 | COc1cc(O)c(C(=O)CCc2ccc3c(c2)OCO3)c(OC)c1 | > 100 |  |  | 21.5 | 105 | 60.2 | 42.4 | 82 | 145 | 39.1 | 28.2
6 | C=CCOc1cc(OC)c(C(=O)/C=C/c2ccco2)c(OCC=C)c1 | 12.2 |  | 15.6 |  |  |  |  |  |  |  | 
7 | COc1ccc(CCC(=O)c2c(O)cc(OC)cc2OC)cc1 | > 100 |  |  | > 197 | > 197 | > 197 | > 197 | > 197 | > 197 | > 197 | > 197
8 | C=CCOc1cc(OC)c(C(=O)/C=C/c2ccc(Cl)cc2)c(OCC=C)c1 | 8.6 | 10.4 | 1.2 |  |  |  |  |  |  |  | 
9 | C=CCOc1cc(OC)c(C(=O)/C=C/c2ccc(C)cc2)c(OCC=C)c1 | 17.2 |  | 12.3 |  |  |  |  |  |  |  | 
10 | C=CCOc1cc(OC)c(C(=O)/C=C/c2cc(OCC=C)c(Br)c(OCC=C)c2)c(OCC=C)c1 | 6.9 | 96.3 | 13.9 |  |  |  |  |  |  |  | 
11 | C=CCOc1cc(OC)c(C(=O)/C=C/C=C/c2ccccc2)c(OCC=C)c1 | > 25 |  |  |  |  |  |  |  |  |  | 
12 | C=CCOc1cc(OC)c(C(=O)/C=C/c2ccc3c(c2)OCO3)c(OCC=C)c1 | 13.6 | 73.5 | 5.4 | 31.7 | 14.5 | 17.5 | 10.9 | 17.2 | 24.1 | 9.6 | 12.2
13 | C=CCOc1cc(OC)c(C(=O)/C=C/c2cc(OC)c(OC)c(OC)c2)c(OCC=C)c1 | 3.4 | 40.9 | 12 |  |  |  |  |  |  |  | 
14 | C=CCOc1cc(OC)c(C(=O)/C=C/c2ccc(OC)cc2)c(OCC=C)c1 | 21.4 | 99.9 | 4.7 | 41 | 20 | 21 | 19.5 | 27.6 | 28.4 | 18.1 | 16.6
15 | C=CCOc1cc(OC)c(C(=O)/C=C/c2ccc(O)c(OC)c2)c(OCC=C)c1 | > 25 |  |  |  |  |  |  |  |  |  | 
16 | COc1ccc(/C=C/C(=O)c2c(O)cc(O)cc2OC)cc1 | > 25 |  |  | 6.7 | 14 | 9 | 17.3 | 19.6 | 21.6 | 19.3 | 17
17 | C=CCOc1cc(OC)c(C(=O)/C=C/c2ccc(C(F)(F)F)cc2)c(OCC=C)c1 | 15.6 | 7.2 | 0.5 |  |  |  |  |  |  |  | 
18 | C=CCOc1cc(OC)c(C(=O)/C=C/c2ccccn2)c(OCC=C)c1 | 1.9 | 2.8 | 1.5 |  |  |  |  |  |  |  | 
19 | C=CCOc1cc(OC)c(C(=O)/C=C/c2ccccc2Br)c(OCC=C)c1 | 13.9 | 13.9 | 1 |  |  |  |  |  |  |  | 
20 | C=CCOc1cc(OC)c(C(=O)/C=C/c2ccc[nH]2)c(OCC=C)c1 | > 100 |  |  |  |  |  |  |  |  |  | 
21 | CC1CS(=O)(=O)CCN1/N=C/c1ccc([N+](=O)[O-])o1 (stereo unspecified) [NIFURTIMOX] | 0.52 | 80.1 | 154 |  |  |  |  |  |  |  | 
22 | C=CCOc1cc(OC)c(C(=O)/C=C/c2ccc(O)cc2)c(OCC=C)c1 | 20.3 | 76.4 | 3.8 |  |  |  |  |  |  |  | 
23 | C=CCOc1cc(OC)c(C(=O)/C=C/c2ccccc2F)c(OCC=C)c1 | 6.2 | 16.3 | 2.6 |  |  |  |  |  |  |  | 
24 | C=CCOc1cc(OC)c(C(=O)/C=C/c2ccncc2)c(OCC=C)c1 | 1.5 | 2.8 | 1.9 |  |  |  |  |  |  |  | 
25 | C=CCOc1cc(OC)c(C(=O)/C=C/c2cccc(OC)c2)c(OCC=C)c1 | 14.2 |  | 9.9 |  |  |  |  |  |  |  | 
26 | C=CCOc1cc(OC)c(C(=O)/C=C/c2ccc(F)cc2)c(OCC=C)c1 | 14.3 | 13.6 | 0.9 |  |  |  |  |  |  |  | 
27 | COc1ccc(/C=C/C(=O)c2c(O)cc(OC)cc2OC)cc1 [FLAVOKAWAIN A] | > 25 |  |  | 17.2 | 24.1 | 30.8 | 17.5 | 22.5 | 45.3 | 15.2 | 20.5
28 | O=c1[nH]cc(F)c(=O)[nH]1 [FLUOROURACIL] |  |  |  | < 1.54 | 4.1 | 15.4 | 6.5 | 22.4 | 8.9 | 14.6 | 16.7
29 | C=CCOc1cc(OC)c(C(=O)/C=C/c2ccc([N+](=O)[O-])cc2)c(OCC=C)c1 | 4.1 | 12.6 | 3.1 |  |  |  |  |  |  |  | 
30 | COc1ccc(CCC(=O)c2c(O)cc(O)cc2OC)cc1 | > 25 |  |  | > 206 | 128 | > 206 | 65.5 | 109 | > 206 | 59.9 | 22.8
